Reference: the supplement of paper PMC7661543
± gives the standard deviation of the averaged measurements.

Assays:
Test in all cases: relative cell number vs DMSO control (72 h) (% of DMSO); higher = less growth inhibition (more cells)
Settings in all cases: sgRNA knockout: sgNT
MDA-MB-231 = test system: MDA-MB-231
Description: (§1)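 QMAP-Seq: a pool of 5 breast cancer cell lines (ZR-75-1, SKBR3, HCC-38, MDA-MB-231, BT-20), each carrying 12 doxycycline-inducible Cas9 sgRNA perturbations (11 knockouts plus non-targeting sgNT), was treated with compounds for 72 h at four 10-fold doses (10 nM-10 uM or 1 nM-1 uM range). Barcodes were amplified and sequenced, and cell number was interpolated from 293T spike-in standard curves. The result is expressed as % of the median of DMSO wells. Two biological replicates.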

HCC-38 = test system: HCC-38
Description: as §1

ZR-75-1 = test system: ZR-75-1
Description: as §1

SKBR3 = test system: SKBR3
Description: as §1

BT-20 = test system: BT-20
Description: as §1

| SMILES | relative cell number (MDA-MB-231; 10 nM) | relative cell number (MDA-MB-231; 100 nM) | relative cell number (MDA-MB-231; 1000 nM) | relative cell number (MDA-MB-231; 10000 nM) | relative cell number (HCC-38; 10 nM) | relative cell number (HCC-38; 100 nM) | relative cell number (HCC-38; 1000 nM) | relative cell number (HCC-38; 10000 nM) | relative cell number (ZR-75-1; 10 nM) | relative cell number (ZR-75-1; 100 nM) | relative cell number (ZR-75-1; 1000 nM) | relative cell number (ZR-75-1; 10000 nM) | relative cell number (SKBR3; 10 nM) | relative cell number (SKBR3; 100 nM) | relative cell number (SKBR3; 1000 nM) | relative cell number (SKBR3; 10000 nM) | relative cell number (BT-20; 10 nM) | relative cell number (BT-20; 100 nM) | relative cell number (BT-20; 1000 nM) | relative cell number (BT-20; 10000 nM) | relative cell number (MDA-MB-231; 1 nM) | relative cell number (HCC-38; 1 nM) | relative cell number (ZR-75-1; 1 nM) | relative cell number (SKBR3; 1 nM) | relative cell number (BT-20; 1 nM) |
| --- | --- | --- | --- | --- | --- | --- | --- | --- | --- | --- | --- | --- | --- | --- | --- | --- | --- | --- | --- | --- | --- | --- | --- | --- | --- |
| COc1cc(OC)c(/C=C/S(=O)(=O)Cc2ccc(OC)c(NCC(=O)O)c2)c(OC)c1 [Rigosertib] | 97.2 ± 1.3 | 94.6 ± 9.7 | 22.9 ± 3.4 | 21.6 ± 4.6 | 96.39 ± 0.69 | 44.2 ± 2.3 | 26.9 ± 2.6 | 24.8 ± 2.4 | 115 ± 13 | 18.8 ± 0.89 | 16.6 ± 2.9 | 16.3 ± 4.1 | 88.9 ± 21 | 5.08 ± 2.9 | 11 ± 1 | 11.1 ± 1.8 | 96.5 ± 1.7 | 70.2 ± 4 | 29.8 ± 11 | 29.5 ± 3.1 |  |  |  |  |  |
| CCc1c2c(nc3ccc(O)cc13)-c1cc3c(c(=O)n1C2)COC(=O)[C@]3(O)CC [SN38] | 38 ± 19 | 21.8 ± 3.3 | 19.5 ± 2 |  | 35.7 ± 5.1 | 19.6 ± 4.8 | 14.5 ± 6 |  | 39.7 ± 5.6 | 36.2 ± 4.4 | 25.4 ± 4.1 |  | 35 ± 16 | 23.2 ± 7.1 | 25 ± 0.91 |  | 77.6 ± 9.2 | 45.3 ± 2.9 | 31.9 ± 5.3 |  | 111 ± 8.8 | 97.2 ± 7.5 | 57.1 ± 2.3 | 67.7 ± 30 | 90.7 ± 2 |
| CC(C)(C)c1cnc(CSc2cnc(NC(=O)C3CCNCC3)s2)o1 [SNS032] | 106 ± 3.3 | 75.8 ± 13 | 10 ± 2.3 | 12 ± 1.4 | 100 ± 19 | 81.3 ± 2.6 | 17.3 ± 1.6 | 27.8 ± 0.81 | 99.8 ± 5 | 85.6 ± 9.4 | 9.44 ± 2.4 | 28.7 ± 4 | 72.7 ± 6 | 89.5 ± 12 | 7.96 ± 5 | 14.9 ± 1.1 | 116 ± 11 | 79.3 ± 15 | 19.7 ± 0.32 | 34.4 ± 1.1 |  |  |  |  |  |
| CC(=O)Nc1nc(C)c(S(=O)(=O)Nc2ccc(C(O)(C(F)(F)F)C(F)(F)F)cc2)s1 [SR1001] | 117 ± 5.5 | 123 ± 15 | 106 ± 12 | 118 ± 29 | 91.5 ± 2.2 | 105 ± 5.6 | 111.7 ± 0.68 | 109 ± 16 | 108 ± 41 | 80.6 ± 15 | 82.9 ± 26 | 113 ± 64 | 104 ± 4.2 | 87.5 ± 13 | 120 ± 17 | 121 ± 3.7 | 111 ± 12 | 92.4 ± 17 | 97.8 ± 18 | 116 ± 32 |  |  |  |  |  |
| CC(C)(C)c1ccc(S(=O)(=O)NCc2ccc(C(=O)Nc3cccnc3)cc2)cc1 [STF31] | 110 ± 16 | 93.4 ± 15 | 61.7 ± 12 | 27.3 ± 3.5 | 90.7 ± 9.9 | 82.5 ± 12 | 93.2 ± 7.9 | 76.6 ± 10 | 112 ± 27 | 92.7 ± 8 | 50.2 ± 2 | 63.1 ± 33 | 97.4 ± 8.6 | 83.52 ± 0.49 | 74.8 ± 10 | 44.1 ± 5.7 | 101 ± 4.2 | 96.7 ± 4.5 | 85.6 ± 20 | 72.8 ± 18 |  |  |  |  |  |
